Tested on: hypersensitive dopamine receptor
Assay: motility triggering in the mouse treated 24 hours earlier with reserpine
Format: in vivo
Method: This test determines predominantly agonistic effects on the hypersensitive dopamine receptor.
Male mice are treated 24 hours before the experiment with 5 mg/kg i.p. reserpine. The animals are kept at 25°-30° C. and treated three times with 2 ml of a 5% glucose solution in tyrode s.c. (the first time when the reserpine is given, the second time in the evening of the pre-treatment day and the third time on the morning of the test day).
[…] (The injection volume is usually 0.1 ml/10 g of body weight). 30 minutes later the groups of animals are placed in the observation cages (measuring 42 x 24 x 8 cm) and fitted with an infrared lightbeam in order to measure their activity. The value measured is the frequency with which a group of 6 mice pass through the infra-red beam within 5 minutes ("running pulses/5 minutes"; mean at n=3; mean±s.e.m. at n=6).
3 to 6 groups are tested for each substance.

Row | SMILES | running pulses every 5 minutes (3 mg/kg s.c.) | ED (50 running pulses/5 min) (Mus musculus, sc, reserpine-treated mice, s.c., read-out: DLi50 (dosage resulting in 50 running pulses every 5 minutes)) [mg/kg] | running pulses every 5 minutes (5 mg/kg s.c.) | effectiveness in motility triggering compared with compound A (reserpine-treated mice, s.c.)
1 | C=CCN1CCc2nc(N)sc2CC1 [Compound A, reference compound] | 50 running pulses every 5 minutes | 3 | – | –
2 | Nc1nc2c(s1)CCN(Cc1ccc(Cl)cc1)CC2 [Compound B, reference compound] | – | – | 22 running pulses every 5 minutes | less effective than compound A

Source: US5068325A, “4,5,7,8-tetrahydro-6H-thiazolo[5,4-d]azepines, their preparation and their use as pharmaceutical compositions” (priority 1988, dated 1991)
